Values quoted from earlier work in patent US4922021A, “New alkylene diamine derivatives” (BASF Aktiensellschaft, priority 1981, dated 1990).

Key:
[1] = literature; cited from earlier work
respiratory centre = details: Bull. Soc. Chim. France 1947, 827; cited from earlier work
[2] = tested on: sympathic nervious system; details: Bull. Soc. Chim. France 1940, 603; cited from earlier work

CCN(CC)CCNc1c(C)cccc1C [1-(2,6-dimethylphenyl-amino)-2-diethylamino-ethane]
local anaesthetic effects [1]: local anaesthetic effects

CCN(CC)CCNc1cccc(Cl)c1 [1-(3-chlorophenyl-amino)-2-diethylamino-ethane]
stimulates the respiratory centre (respiratory centre): stimulates the respiratory centre

CC(CN)Nc1ccccc1 (stereo not drawn) [1-amino-2-phenylamino-propane]
acting on the sympathetic nervous system [2]: acting on the sympathic nervious system
